Measured values from US20130059324A1, “SYSTEMS AND METHODS FOR MECHANICALLY STRAINED CELL CULTURE” (THE UNIVERSITY OF KANSAS, priority 2010, published 2013).

Legend:
[1] = tested on: H358 cells; test: Prototype 96-well plate, viable cell count (Vi-Cell) with and without mechanical forces; format: cell-based, human
Procedure: (§2) After allowing the cells to adhere to the flexible membrane of the 96 well plate for 24 hours, the loading pins and the system described in FIG. 7 to implement mechanical strain were used to deliver 20% maximum strain for 2 seconds to the plate assigned for mechanical forces (+M Group), followed by 2 seconds of rest (15 cycles per minute with an average strain of 10% per cycle) in keeping with a normal human respiration.
In a parallel experiments, the cells were treated with anti-tumor drug after 72 hours of initial seeding (after 48 hours of mechanical stretching). The drug was dissolved in dimethyl sulfoxide (DMSO) at stock concentration and added to the respective media. An aliquot of 50 μl of drug stock solution was added to the well containing 100 μl of media (a 1:3 dilution) in a drug plate to get the desired IC90 concentration of the drug (Table 1). The IC90 concentrations of the drugs were then added to prototype plate.
(§3) The +M Group was subjected to continuous mechanical stretching while the −M Group plate was placed in the same incubator for additional 24 hours.
In order to quantify viability, 6 wells per treatment group for ViCell counter and 6 wells per condition for MTS were assigned to determine the cell viability. Using Vi-Cell counter, assigned wells were filled with extra 210 μl of media to keep the volume constant in all the wells.

[2] = tested on: H358 cells grown as 3D tissues; test: 3D culture antiproliferative MTS assay in collagen with and without mechanical forces; format: cell-based; details: Homo sapiens, NCI-H358, 72 h, H358 3D in collagen, 72 hours exposure
Procedure: Effects of mechanical forces on engineered 3-dimensional tumor tissues were also studied, An experiment was conducted with paclitaxel, which was tested in the presence and absence of mechanical forces in H358 cells (bronchioalveolar carcinoma) grown as 3D tissues in type 1 rat tail collagen scaffold. The cells were seeded at a density of 4×10^6 cells per well in 6-well Bioflex collagen I plates and cultured in PRMI 1640 medium The forces that were tested were configured to mimic normal respiration. After 24 hours of seeding, cells were stretched from 0% to a maximum of 20% elongation for 2 seconds followed by 2 seconds of rest continuously for 4 days. Control group included cells that were plated in collagen at the same densities and incubated for 5 days without mechanical forces. […] As a note, a computing system similar to FIG. 6 can be used to control an experiment system in order to provide predetermined cycles of mechanical strain and relaxation.
Following 24 hours of stetching, paclitaxel was added to H358 cells in ten 1:3 dilutions with starting concentrations 100 μM. […] Dose response curves were plotted and corresponding IC50 values (concentration of the drug at which 50% of the cells are inhibited) were calculated for stretched and un-stretched conditions using Graphpad Prism software.

[3] = tested on: A549 cells; test: Prototype 96-well plate, MTS assay with and without mechanical forces; format: cell-based, human; details: A549, drug at IC90, 24 hours, 490 nm
Procedure: (§1) The prototype plate was read using the Biotek plate reader at the wavelength of 490 nm until the media only wells absorbance reached 1.0. For the +M group plate, 30 ul of MTS was added to the assigned wells and kept in the incubator for the same amount of time that required for the −M group to develop and read at the same wavelength.

[4] = tested on: H358 cells; test: as above; format: cell-based, human; details: drug at IC90, 24 hours, 490 nm
Procedure: as §1

[5] = tested on: A549 cells
Procedure: as §2
(§4) In a parallel experiments, the cells were treated with anti-tumor drug after 72 hours of initial seeding (after 48 hours of mechanical stretching). The drug was dissolved in dimethyl sulfoxide (DMSO) at stock concentration and added to the respective media. […] The IC90 concentrations of the drugs were then added to prototype plate.
as §3
(§5) In order to quantify viability, 6 wells per treatment group for ViCell counter and 6 wells per condition for MTS were assigned to determine the cell viability. Using Vi-Cell counter, assigned wells were filled with extra 210 μl of media to keep the volume constant in all the wells. Media from the assigned wells were transferred into a 24-well plate, and the well location was recorded. About 50 μl of trypLE was added to each well and allowed to trypsinize for a maximum of ten minutes. A small amount of media from the 24-well plate was transferred back into corresponding wells of the prototype plate to collect detached cells.
(§6) Media and cells were transferred back into the corresponding well of the 24-well plate. All wells were brought to a final volume of 1.25 mL with PBS and mixed well. About 1 ml of this cell suspension was transferred to ViCell counter to determine the number of viable cells.

[6] = tested on: A549 cells; test: Prototype 96-well plate, viable cell count (Vi-Cell) with and without mechanical forces; details: drug at IC90, 24 hours
Procedure: as §2, §4, §3, §5, §6

CC(=O)O[C@H]1C(=O)[C@@]2(C)[C@H]([C@H](OC(=O)c3ccccc3)[C@]3(O)C[C@H](OC(=O)[C@H](O)[C@@H](NC(=O)c4ccccc4)c4ccccc4)C(C)=C1C3(C)C)[C@]1(OC(C)=O)CO[C@@H]1C[C@@H]2O [Paclitaxel]
Effect of mechanical forces on viable cell count / cytotoxicity ([1]; 24 hours drug exposure, prototype 96-well plate): remained unaffected | Viable Cell Count after 24 hours of drug exposure, With forces (Ef) ([1]; drug at IC90, 24 hours, mechanical forces): 9687.5 | Viable Cell Count after 24 hours of drug exposure, Without forces (E) ([1]; drug at IC90, 24 hours, no forces): 21250.0 | IC50 ([2]; absence of mechanical stress): 22.6 µM | IC50 ([2]; cells experiencing mechanical stress (0-20% elongation)): 0.2 µM | MTS absorbance after 24 hours of drug exposure, With forces (Ef) ([3]; mechanical forces): 0.293 | MTS absorbance after 24 hours of drug exposure, Without forces (E) ([3]; no forces): 0.567 | MTS absorbance after 24 hours of drug exposure, With forces (Ef) ([4]; mechanical forces): 0.345 | MTS absorbance after 24 hours of drug exposure, Without forces (E) ([4]; no forces): 0.522 | Effect of mechanical forces on viable cell count / cytotoxicity [5]: Statistically significant reduction | Viable Cell Count after 24 hours of drug exposure, With forces (Ef) ([6]; mechanical forces): 11875.0 | Viable Cell Count after 24 hours of drug exposure, Without forces (E) ([6]; no forces): 33125.0
